In US5622960A, “Topoisomerase II inhibitors and therapeutic uses therefor” (The United States of America as represented by the …, priority 1992, dated 1997):

Key:
[1] = test system: top 2 (HL-60 nuclear extract); assay: Induction of DNA double-strand breaks in SV40 DNA in presence of HL-60 nuclear extract; format: biochemical; settings: up to 1 mM
Method: (§1) Chemicals, and enzymes: Azatoxin and its derivatives, as well as the demethyldesoxypodophyllotoxin (DMDP) and demethylepipodophyllotoxin (DMEP), were synthesized by conventional methods. The compounds m-AMSA and mitoxantrone were obtained from the Drug Synthesis and Chemistry Branch, National Cancer Institute, Bethesda, Md. The compounds VP-16 and VM-26 were obtained from Bristol-Myers Company (Wallingford, Conn.). Drug stock solutions were made in dimethylsulfoxide at 10 mM. Further dilutions were made in distilled water. Various other reagents, including simian virus 40 (SV40) and c-myc human DNA inserts in plasmid pBR322, restriction endonucleases, DNA topoisomerase I, T4 polynucleotide kinase, calf intestine phosphatase, agarose and polyacrylamide/bis, were purchased from Bethesda Research Laboratories (Gaithersburg, Md.), from the American Type Culture Collection (Rockville, Md.) or from New England Biolabs (Beverly, Mass.). [Gamma-^32 P]ATP was purchased from New England Nuclear Research Products (Boston, Mass.).
Preparation of end-labeled DNA fragments: DNA fragments were 5' end-labeled as described, for example, by Fesen and Pommier (1989), supra. Briefly, native DNA was first linearized with a restriction enzyme, then the 5'-DNA termini were dephosphorylated with calf alkaline phosphatase and labeled with [gamma-^32 P]ATP using T4 polynucleotide kinase. For double-strand breaks assays using HL-60 nuclear extract, SV40 DNA was digested with BclI endonuclease and labeled at both DNA termini. For sequencing experiments, SV40 and c-myc DNAs were first 5'-end labeled at the XhoII and XbaI restriction sites, respectively. Then, in order to generate uniquely 5'-end-labeled fragments, labeled DNA was subjected to a second enzyme digestion, PflMI for SV40, and EcoRI plus HindIII for c-myc DNA. The resulting DNA fragments were separated by agarose gel electrophoresis and isolated by electroelution. […]
For agarose gel analysis, 3 μl (10×) loading buffer (0.3% bromophenol blue, 16% Ficoll, 10 mM Na2 HPO4) was added to each sample which was then heated at 65° C. for 1-2 minutes before loading into an agarose gel made in (1×) TBE (89 mM Tris, 89 mM boric acid, 2 mM EDTA, pH8), in accordance with Fesen & Pommier (1989), supra. […] The quantification of drug-induced DNA double-strand breaks in the presence of HL-60 nuclear extract was effected as described in the next paragraph.
Radioactive gels were counted in betascope 603 blot analyzer. […] Drug-induced cleavage was expressed as: [formula] where C. and T. are the counts for cleaved and total DNA, respectively, in presence of nuclear extract without drug.
Drug-induced DNA double-strand breaks were measured first in SV40 DNA in the presence of HL-60 nuclear extracts. […]

Topoisomerase II = assay: topoisomerase II inhibition: drug-induced DNA cleavage in presence of HL-60 extract or purified top 2; format: biochemical; settings: for Topoisomerase II inhibition: class symbols without legend, HL-60 extract or purified top 2; for top 2 inhibition / top 2 activity (in words): DNA cleavage assays; for effect of hydroxyl substitution on top 2 activity: 1 versus 6, DMDP versus DMEP
Text: Because the azatoxin skeleton is synthetically accessible, a large number of derivatives are readily prepared and screened for top 2 inhibitory activity in accordance with the present invention. Such screening can be effected by means of an in vitro assay which employs purified top 2 and ^32 P-end-labelled DNA. In such an assay, top 2 inhibition by a test substance results in DNA fragmentation which can be detected by agarose gel electrophoresis, as described by Fesen and Pommier, J. Biol. Chem. 19:11354-59 (1989); by the filter-binding assay described by Pommier et al., Biochem. 24:6410-16 (1985); or by the sodium dodecylsulfate precipitation assay employed by Nelson et al., Proc. Nat'l Acad. Sci. USA81: 1361-65 (1984).
as §1
(§2) DNA topoisomerase II was purified from mouse leukemia L1210 cell nuclei as described, for example, by Pommier et al. (1985), supra, and was stored at -70° C. in 40% (v/v) glycerol, 0.35 M NaCl, 5 mM MgCl2, 1 mM KH2 PO4, 0.2 mM dithiothreitol and 0.1 mM phenylmethanesulfonyl fluoride (pH 6.4). The purified enzyme yielded a single 170 kDa band after silver staining of SDS-polyacrylamide gels, in accordance with the description of Pommier et al., Cancer Res. 46: 3075-81 (1986).
(§3) Preparation of end-labeled DNA fragments: DNA fragments were 5' end-labeled as described, for example, by Fesen and Pommier (1989), supra. Briefly, native DNA was first linearized with a restriction enzyme, then the 5'-DNA termini were dephosphorylated with calf alkaline phosphatase and labeled with [gamma-^32 P]ATP using T4 polynucleotide kinase. For double-strand breaks assays using HL-60 nuclear extract, SV40 DNA was digested with BclI endonuclease and labeled at both DNA termini. For sequencing experiments, SV40 and c-myc DNAs were first 5'-end labeled at the XhoII and XbaI restriction sites, respectively. Then, in order to generate uniquely 5'-end-labeled fragments, labeled DNA was subjected to a second enzyme digestion, PflMI for SV40, and EcoRI plus HindIII for c-myc DNA. The resulting DNA fragments were separated by agarose gel electrophoresis and isolated by electroelution. Purification by phenol-chloroform extraction and ethanol precipitation were included between each step and at the end of the labeling procedures, pursuant to Pommier et al., J. Molec. Biol. 222: 909-24 (1991).
Topoisomerase II-induced DNA cleavage reactions: DNA fragments were equilibrated with or without drug in 10 mM Tris-HCl, pH 7.5, 50 mM KCl, 5 mM MgCl2 0.1 mM EDTA, 1 mM ATP and 15 μg/ml bovine serum albumin for 5 minutes before addition of purified topoisomerase II (40 to 70 ng) or HL-60 nuclear extract in 20 μl final reaction volume. Reactions were stopped by adding sodium dodecyl sulfate (SDS) to a final concentration of 1% and proteinase K to 400 μg/ml, followed by incubation for 1 hour at 40° C. […]

SV40 DNA = assay: DNA unwinding (intercalation) assay with excess topoisomerase I; format: biochemical, simian virus 40; settings: relaxed SV40 DNA, excess topoisomerase I; concentrations as high as 1 mM
Method: To assess DNA unwinding, see Pommier et al., Nucleic Acids Res. 15: 6713-31(1987), the DNA was relaxed first by treatment for 15 minutes with top 1 (20 units), after which the test agent was added. These steps were carried out at 37° C. DNA-agent-top 1 mixtures were incubated for an additional 30 minutes and then stopped as described above. Samples were then subjected to agarose gel electrophoresis as described above.
This was also the case for the 2 azatoxin isomers, 8 and 10, and for the demethylepipodophyllotoxins, DMDP and DMEP. Similar results were obtained with supercoiled DNA.

[2] = biological target: T1, purified murine leukemia top 2 (Mus musculus, UniProt Q01320); assay: Sequencing of topoisomerase II cleavage sites (SV40 and c-myc DNA); format: biochemical
T1 construct: single 170 kDa band on silver-stained SDS-PAGE
Method: as §1, §2, §3
Topoisomerase II-induced DNA cleavage reactions: DNA fragments were equilibrated with or without drug in 10 mM Tris-HCl, pH 7.5, 50 mM KCl, 5 mM MgCl2 0.1 mM EDTA, 1 mM ATP and 15 μg/ml bovine serum albumin for 5 minutes before addition of purified topoisomerase II (40 to 70 ng) or HL-60 nuclear extract in 20 μl final reaction volume. Reactions were stopped by adding sodium dodecyl sulfate (SDS) to a final concentration of 1% and proteinase K to 400 μg/ml, followed by incubation for 1 hour at 40° C.
For DNA sequence analysis, samples were precipitated with ethanol and resuspended in 2.5 μl loading buffer (80% formamide, 10 mM NaOH, 1 mM EDTA, 0.1% xylene cyanol and 0.1% bromophenol blue). Samples were heated to 90° C. and immediately loaded into DNA sequencing gels (6% polyacrylamide; 19:1, acrylamide:bis) containing 7M urea in (1×) TBE buffer. Electrophoresis was at 2500 V (60 W) for 4 hours. Gels were dried on 3M paper sheets and autoradiographed with Kodak XAR-2 film. See Pommier et al. (1991), supra.
Induction of top 2 cleavage by azatoxin was tested directly with the use of purified murine leukemia top 2. […] Sites of cleavage were also determined by DNA sequencing in the 5' flank of c-myc first intron.

T1 sequence (Q01320 whole entry): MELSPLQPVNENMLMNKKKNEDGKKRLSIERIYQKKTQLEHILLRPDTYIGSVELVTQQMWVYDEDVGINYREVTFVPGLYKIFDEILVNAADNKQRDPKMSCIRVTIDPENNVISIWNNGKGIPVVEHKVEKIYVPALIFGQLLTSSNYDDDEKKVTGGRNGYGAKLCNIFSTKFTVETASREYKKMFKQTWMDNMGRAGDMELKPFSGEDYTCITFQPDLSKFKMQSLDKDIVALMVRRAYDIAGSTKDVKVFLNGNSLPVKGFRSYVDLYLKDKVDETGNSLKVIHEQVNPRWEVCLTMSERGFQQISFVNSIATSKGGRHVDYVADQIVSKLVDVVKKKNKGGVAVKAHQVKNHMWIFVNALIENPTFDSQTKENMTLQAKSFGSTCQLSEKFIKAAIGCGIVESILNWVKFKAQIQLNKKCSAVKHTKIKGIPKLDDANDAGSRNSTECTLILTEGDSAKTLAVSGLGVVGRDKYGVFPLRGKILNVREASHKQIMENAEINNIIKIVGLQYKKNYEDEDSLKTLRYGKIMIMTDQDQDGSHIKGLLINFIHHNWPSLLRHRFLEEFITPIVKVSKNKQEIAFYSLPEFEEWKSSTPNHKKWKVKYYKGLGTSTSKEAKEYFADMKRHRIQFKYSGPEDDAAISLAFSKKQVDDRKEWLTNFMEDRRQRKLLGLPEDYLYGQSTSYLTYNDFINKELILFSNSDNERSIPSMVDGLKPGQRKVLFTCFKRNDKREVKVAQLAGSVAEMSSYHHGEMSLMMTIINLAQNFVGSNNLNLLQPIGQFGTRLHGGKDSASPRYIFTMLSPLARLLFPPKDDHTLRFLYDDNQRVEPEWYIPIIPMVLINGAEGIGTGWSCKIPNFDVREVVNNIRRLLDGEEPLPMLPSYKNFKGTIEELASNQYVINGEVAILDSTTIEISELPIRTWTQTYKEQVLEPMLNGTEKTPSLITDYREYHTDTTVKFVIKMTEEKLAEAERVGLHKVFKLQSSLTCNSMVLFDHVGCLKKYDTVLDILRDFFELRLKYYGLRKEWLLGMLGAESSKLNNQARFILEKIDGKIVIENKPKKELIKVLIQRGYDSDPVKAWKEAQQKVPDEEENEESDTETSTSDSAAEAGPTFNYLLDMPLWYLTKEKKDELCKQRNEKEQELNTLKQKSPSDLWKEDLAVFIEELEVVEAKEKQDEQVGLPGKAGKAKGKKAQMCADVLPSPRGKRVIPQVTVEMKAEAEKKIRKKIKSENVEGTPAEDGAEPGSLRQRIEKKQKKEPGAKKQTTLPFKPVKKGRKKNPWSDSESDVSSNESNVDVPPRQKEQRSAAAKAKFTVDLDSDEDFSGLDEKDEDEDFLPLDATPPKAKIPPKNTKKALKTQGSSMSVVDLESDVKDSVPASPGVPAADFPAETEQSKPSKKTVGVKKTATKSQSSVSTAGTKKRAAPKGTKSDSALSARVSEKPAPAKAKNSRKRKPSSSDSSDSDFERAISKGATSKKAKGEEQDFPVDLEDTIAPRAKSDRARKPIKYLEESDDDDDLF

SMILES: COc1cc([C@@H]2c3cc4c(cc3[C@@H](O[C@@H]3O[C@@H]5CO[C@@H](C)O[C@H]5[C@H](O)[C@H]3O)[C@H]3COC(=O)[C@H]23)OCO4)cc(OC)c1O [VP-16, etoposide, reference compound]
- suppression of DNA cleavage at high drug concentrations [1]: not suppressed at high drug concentrations (up to 1 mM)

SMILES: CS(=O)(=O)Nc1ccc([C@@H]2c3[nH]c4ccccc4c3C[C@H]3COC(=O)N32)cc1 [Compound 5]
- Topoisomerase II inhibition (Topoisomerase II): .largecircle.

SMILES: COc1cc([C@@H]2C3=C(C[C@H]4COC(=O)N42)c2cccc4cccc3c24)cc(OC)c1O (relative stereo) [Compound 7, 5,11a-trans-3-one-5,4, 11, 11a-tetrahydro-5-(3,5-dimethoxy-4-hydroxyphenyl)-1H, 10H-oxazol [3', 4':1,6]pyrido[1,2-b]acenapthylene]
- top 2 inhibition / top 2 activity (in words) (Topoisomerase II): inactive
- Topoisomerase II inhibition (Topoisomerase II): .largecircle.

SMILES: COc1cc([C@@H]2c3c([nH]c4ccccc34)C[C@H]3COC(=O)N32)cc(OC)c1O (relative stereo) [Compound 8]
- top 2 inhibition / top 2 activity (in words) (Topoisomerase II): inactivity
- Topoisomerase II inhibition (Topoisomerase II): .largecircle.
- DNA unwinding (SV40 DNA): did not induce detectable DNA unwinding even at drug concentrations as high as 1 mM

SMILES: COc1cc([C@@H]2c3cc4c(cc3C[C@H]3COC(=O)[C@@H]32)OCO4)cc(OC)c1O [DMDP, 4'-demethyl-4-desoxypodophyllotoxin, reference compound]
- top 2 cleavage sites induced (number/amount) ([2]; SV40 and c-myc DNA, purified murine top 2): induced less cleavage that azatoxin
- top 2 cleavage pattern ([2]; compared with other top 2 inhibitors): at distinct cleavages sites
- DNA unwinding (SV40 DNA): did not induce detectable DNA unwinding even at drug concentrations as high as 1 mM

SMILES: COc1cc([C@@H]2c3[nH]c4ccccc4c3C[C@H]3COC(=O)N32)cc(OC)c1OC [Compound 4, 5R,11aS-3-one-5,4,11,11a,tetrahydro-5-(3,4,5-trimethoxyphenyl)-1H, 6H-oxazolo[3',4':1,6]pyrido[3,4-b]indole]
- Topoisomerase II inhibition (Topoisomerase II): .largecircle.

SMILES: COc1cc([C@@H]2c3[nH]c4ccccc4c3[C@@H](O)[C@H]3COC(=O)N23)cc(OC)c1O [Compound 6, 5R,11R,11aS-3-One-11-hydroxy-5,4,11,11a-tetrahydro-5-(3,5-dimethoxy-4-hydroxyphenyl)-1H, 6H-oxazolo[3'4:1,6]pyrido[3,4-b]indole]
- effect of hydroxyl substitution on top 2 activity (Topoisomerase II): significantly decreases top 2 activity
- top 2 inhibition / top 2 activity (in words) (Topoisomerase II): measurable but not strong top 2 activity

SMILES: COc1cc([C@@H]2c3cc4c(cc3[C@@H](O)[C@H]3COC(=O)[C@H]23)OCO4)cc(OC)c1O [DMEP, 4'-demethylepipodophyllotoxin, reference compound]
- top 2 cleavage potency (in words) [2]: at least as potent as VP-16
- effect of hydroxyl substitution on top 2 activity (Topoisomerase II): increases activity
- DNA unwinding (SV40 DNA): did not induce detectable DNA unwinding even at drug concentrations as high as 1 mM

SMILES: COc1cc([C@@H]2c3[nH]c4ccccc4c3C[C@H]3COC(=O)N32)ccc1O [Compound 2, 5R, 11aS-3-One-5,4,11,11a-tetrahydro-5-(3-methoxy-4-hydroxyphenyl)-1H, 6H-oxazolo[3', 4': 1.6]pyrido[3,4-b]indole]
- Topoisomerase II inhibition (Topoisomerase II): .smallcircle.
- factor of reduction of top 2 activity by monodemethoxylation of pendant ring (Topoisomerase II; versus azatoxin): 10

SMILES: O=C1OC[C@@H]2Cc3c([nH]c4ccccc34)[C@@H](c3ccc(O)cc3)N12 [Compound 3, 5R, 11aS-3-one-5,4,11,11a-tetrahydro-5-(4-hydroxyphenyl)-1H, 6H-oxazolo[3',4':1,6]pyrido[3,4-b]indole]
- top 2 inhibition / top 2 activity (in words) (Topoisomerase II): abolished the top 2 activity
- Topoisomerase II inhibition (Topoisomerase II): .largecircle.

SMILES: COc1cc([C@H]2c3[nH]c4ccccc4c3C[C@H]3COC(=O)N32)cc(OC)c1O [Compound 10, 5S, 11aS-3-One-5,4,11,11a-tetrahydro-5-(3,5-dimethoxy-4-hydroxyphenyl)-1H, GH-oxazolo[3'4':1,6]pyrido[3,4-b]indole]
- top 2 inhibition / top 2 activity (in words) (Topoisomerase II): inactive
- Topoisomerase II inhibition (Topoisomerase II): .largecircle.
- DNA unwinding (SV40 DNA): did not induce detectable DNA unwinding even at drug concentrations as high as 1 mM

SMILES: COc1cc([C@@H]2c3[nH]c4ccccc4c3C[C@@H]3COC(=O)N32)cc(OC)c1O [Compound 9, 5R,11aR-3-One-5,4,11,11a-tetrahydro-5-(3,5-dimethoxy-4-hydroxyphenyl)-1H, 6H-oxazolo[3'4':1,6']pyrido[3,4-b]indole]
- top 2 inhibition / top 2 activity (in words) (Topoisomerase II): inactive
- Topoisomerase II inhibition (Topoisomerase II): .largecircle.
